SMILES strings stand for the structures. Bridge positions count the residues as written; N and C are the ends. Square brackets hold non-standard residues; d marks the D form. Peptide text beside a SMILES is read from it. * marks the point of attachment. Phe(4-COOH) = N[C@@H](Cc1ccc(C(=O)O)cc1)C(=O)O; Bip = N[C@@H](Cc1ccc(-c2ccccc2)cc1)C(=O)O; Phe(3-Cl) = N[C@@H](Cc1cccc(Cl)c1)C(=O)O; Phe(3-OMe) = COc1cccc(C[C@H](N)C(=O)O)c1; Phe(3-Me) = Cc1cccc(C[C@H](N)C(=O)O)c1; Val(3-OH) = CC(C)(O)[C@H](N)C(=O)O; mTyr = N[C@@H](Cc1cccc(O)c1)C(=O)O; hPhe = N[C@@H](CCc1ccccc1)C(=O)O; 3Pal = N[C@@H](Cc1cccnc1)C(=O)O; 4Pal = N[C@@H](Cc1ccncc1)C(=O)O; Cha = N[C@@H](CC1CCCCC1)C(=O)O; Cit = NC(=O)NCCC[C@H](N)C(=O)O; Carboxymethyl = O=C(O)C*; NMeA = CN[C@@H](C)C(=O)O; Orn = NCCC[C@H](N)C(=O)O; Pra = C#CC[C@H](N)C(=O)O; Dab = NCC[C@H](N)C(=O)O; Dap = NC[C@H](N)C(=O)O

IC50 data for 11 compounds are collected here from patent US20240409585A1, “MACROCYCLIC IMMUNOMODULATORS” (priority 2021, published 2024).

The experiment concerns the target T1, PE-labeled human PD-L1-Ig binding to Jurkat cell line over-expressing human PD-1 (Jurkat-PD-1) (Homo sapiens, UniProt Q15116).
T1 construct: expressed in transfected cells; host or cells: Jurkat
Nature of the experiment: Jurkat-PD-1 Cell Binding High-Content Screening Assay (CBA): Method 1. Particulars: Jurkat-hPD-1 cells, PE-labeled PD-L1-Ig 20 nM final; read-out: Jurkat HPDL1 PD1 IC50 (uM) (Method 1).

T1 sequence (Q15116 25-288): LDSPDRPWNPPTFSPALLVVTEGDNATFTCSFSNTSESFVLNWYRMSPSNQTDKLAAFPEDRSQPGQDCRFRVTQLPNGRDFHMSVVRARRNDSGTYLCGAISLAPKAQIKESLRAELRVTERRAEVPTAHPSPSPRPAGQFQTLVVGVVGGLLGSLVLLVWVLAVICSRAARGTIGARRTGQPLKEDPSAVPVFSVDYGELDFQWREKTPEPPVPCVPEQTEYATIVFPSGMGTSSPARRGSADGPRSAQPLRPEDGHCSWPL

Regarding `CC(C)C[C@@H]1NC(=O)[C@H](CCN)NC(=O)[C@@H](CC(C)C)NC(=O)[C@H](C)N(C)C(=O)[C@H](CCCNC(=N)N)NC(=O)[C@H](Cc2ccc(-c3ccccc3)cc2)NC(=O)[C@H](C(C)C)NC(=O)[C@H](Cc2cccc(Cl)c2)NC(=O)[C@H](CC(=O)O)NC(=O)[C@H](Cc2ccc(OCC(=O)O)cc2)NC(=O)[C@H](CN)NC(=O)CSC[C@@H](C(=O)N[C@@H](C)C(N)=O)NC(=O)[C@H]([C@@H](C)O)NC(=O)[C@H](C(C)C)NC1=O` [Compound 1458] ({CH2CO}-[Dap]Y(Carboxymethyl)D[Phe(3-Cl)]V[Bip]R[NMeA][dL][Dab]LVTCA-NH2; thioether N-14), the IC50 (as a rule, the point on the concentration scale where inhibition reaches its midpoint) turned out to be 0.04 µM.
Take `CC[C@H](C)[C@@H]1NC(=O)[C@H](Cc2ccc(-c3ccccc3)cc2)NC(=O)[C@H](C(C)C)NC(=O)[C@H](Cc2c[nH]c3ccccc23)NC(=O)[C@H](CC(=O)O)NC(=O)[C@H](Cc2cccc(OC)c2)NC(=O)[C@H](Cc2ccncc2)NC(=O)CSC[C@@H](C(=O)N[C@@H](C)C(N)=O)NC(=O)[C@H]([C@@H](C)O)NC(=O)[C@H](C(C)C)NC(=O)[C@H](CC(C)C)NC(=O)[C@H](CCN)NC(=O)[C@@H](CC(C)C)NC(=O)[C@H](C)N(C)C1=O` [Compound 1406] ({CH2CO}-[4Pal][Phe(3-OMe)]DWV[Bip]I[NMeA][dL][Dab]LVTCA-NH2; thioether N-14): the IC50 worked out at 0.02 µM.
With `C#CC[C@H](NC(=O)CNC(=O)[C@@H]1CSCC(=O)N[C@@H](Cc2ccc(OCC(=O)O)cc2)C(=O)N[C@@H](Cc2ccc(C(=O)O)cc2)C(=O)N[C@@H](CC(=O)O)C(=O)N[C@@H](Cc2c[nH]c3ccccc23)C(=O)N[C@@H](CC(C)C)C(=O)N[C@@H](Cc2ccc(-c3ccccc3)cc2)C(=O)N[C@@H](C(C)C)C(=O)N(C)[C@@H](C)C(=O)N[C@H](CC(C)C)C(=O)N[C@@H](CCN)C(=O)N[C@@H](CC2CCCCC2)C(=O)N[C@@H](C(C)(C)O)C(=O)N[C@@H](CO)C(=O)N1)C(N)=O` [Compound 1933] ({CH2CO}-Y(Carboxymethyl)[Phe(4-COOH)]DWL[Bip]V[NMeA][dL][Dab][Cha][Val(3-OH)]SCG[Pra]-NH2; thioether N-14) the figure was 0.01 µM.
Consider `CC(C)C[C@@H]1NC(=O)[C@H](CCN)NC(=O)[C@@H](CC(C)C)NC(=O)[C@H](C)N(C)C(=O)[C@H](CCCNC(=N)N)NC(=O)[C@H](Cc2ccc(-c3ccccc3)cc2)NC(=O)[C@H](C(C)C)NC(=O)[C@H](Cc2c[nH]c3ccccc23)NC(=O)[C@H](CC(=O)O)NC(=O)[C@H](CCc2ccccc2)NC(=O)[C@H](CC(N)=O)NC(=O)CSC[C@@H](C(=O)N[C@@H](C)C(N)=O)NC(=O)[C@H]([C@@H](C)O)NC(=O)[C@H](C(C)C)NC1=O` [Compound 1353] ({CH2CO}-N[hPhe]DWV[Bip]R[NMeA][dL][Dab]LVTCA-NH2; thioether N-14), for which the 50% inhibitory concentration (IC50) came to 0.03 µM.
Regarding `CC(C)C[C@@H]1NC(=O)[C@H](Cc2c[nH]c3ccccc23)NC(=O)[C@H](CC(=O)O)NC(=O)[C@H](Cc2ccc(O)cc2)NC(=O)[C@H](Cc2ccccc2)NC(=O)CSC[C@@H](C(=O)N[C@@H](C)C(=O)N[C@@H](CCCN)C(=O)O)NC(=O)[C@H](CO)NC(=O)[C@H](C(C)C)NC(=O)[C@H](CC(C)C)NC(=O)[C@H](CC(N)=O)NC(=O)[C@@H](CC(C)C)NC(=O)[C@H](C)N(C)C(=O)[C@H](C(C)C)NC(=O)[C@H](Cc2ccc(-c3ccccc3)cc2)NC1=O` [Compound 2238] ({CH2CO}-FYDWL[Bip]V[NMeA][dL]NLVSCA[Orn]-OH; thioether N-14), the IC50 was determined as 0.01 µM.
To `CC[C@H](C)[C@@H]1NC(=O)[C@H](Cc2ccc(-c3ccccc3)cc2)NC(=O)[C@H](C(C)C)NC(=O)[C@H](Cc2c[nH]c3ccccc23)NC(=O)[C@H](CC(=O)O)NC(=O)[C@H](Cc2ccc(O)cc2)NC(=O)[C@H](CC(C)C)NC(=O)CSC[C@@H](C(=O)N[C@@H](C)C(N)=O)NC(=O)[C@H]([C@@H](C)O)NC(=O)[C@H](C(C)C)NC(=O)[C@H](CC(C)C)NC(=O)[C@H](CCN)NC(=O)[C@@H](CC(C)C)NC(=O)[C@H](C)N(C)C1=O` [Compound 1392] ({CH2CO}-LYDWV[Bip]I[NMeA][dL][Dab]LVTCA-NH2; thioether N-14) belongs 0.04 µM; to `Cc1cccc(C[C@@H]2NC(=O)[C@H](CC(=O)O)NC(=O)[C@H](Cc3ccc(O)cc3)NC(=O)[C@H](CC(N)=O)NC(=O)CSC[C@@H](C(=O)N[C@H](C)C(N)=O)NC(=O)[C@H]([C@@H](C)O)NC(=O)[C@H](C(C)C)NC(=O)[C@H](CC3CCCCC3)NC(=O)[C@H](CCN)NC(=O)[C@@H](CC(C)C)NC(=O)[C@H](C)N(C)C(=O)[C@H](CCCNC(N)=O)NC(=O)[C@H](Cc3ccc(-c4ccccc4)cc3)NC(=O)[C@H](C(C)(C)O)NC2=O)c1` [Compound 1704] ({CH2CO}-NYD[Phe(3-Me)][Val(3-OH)][Bip][Cit][NMeA][dL][Dab][Cha]VTC[dA]-NH2; thioether N-14), 0.15 µM.
For the compound `CC(C)C[C@@H]1NC(=O)[C@H](CCN)NC(=O)[C@@H](CC(C)C)NC(=O)[C@H](C)N(C)C(=O)[C@H](CCCNC(=N)N)NC(=O)[C@H](Cc2ccc(-c3ccccc3)cc2)NC(=O)[C@H](C(C)C)NC(=O)[C@H](Cc2c[nH]c3ccccc23)NC(=O)[C@H](CC(=O)O)NC(=O)[C@H](Cc2cccc(O)c2)NC(=O)[C@H](CC(N)=O)NC(=O)CSC[C@@H](C(=O)N[C@@H](C)C(N)=O)NC(=O)[C@H]([C@@H](C)O)NC(=O)[C@H](C(C)C)NC1=O` [Compound 1355] ({CH2CO}-N[mTyr]DWV[Bip]R[NMeA][dL][Dab]LVTCA-NH2; thioether N-14), the IC50 came out at 0.13 µM.
As for `CC(C)C[C@@H]1NC(=O)[C@H](Cc2c[nH]c3ccccc23)NC(=O)[C@H](CC(=O)O)NC(=O)[C@H](Cc2ccc(OCC(=O)O)cc2)NC(=O)[C@H](Cc2ccncc2)NC(=O)CSC[C@@H](C(=O)N[C@@H](C)C(N)=O)NC(=O)[C@H](CO)NC(=O)[C@H](C(C)C)NC(=O)[C@H](CC(C)C)NC(=O)[C@H](CC(N)=O)NC(=O)[C@@H](CC(C)C)NC(=O)[C@H](C)N(C)C(=O)[C@H](C(C)C)NC(=O)[C@H](Cc2ccc(-c3ccccc3)cc2)NC1=O` [Compound 1592] ({CH2CO}-[4Pal]Y(Carboxymethyl)DWL[Bip]V[NMeA][dL]NLVSCA-NH2; thioether N-14), the IC50 is 0.01 µM.
Regarding `CC(C)C[C@@H]1NC(=O)[C@H](CCN)NC(=O)[C@@H](CC(C)C)NC(=O)[C@H](C)N(C)C(=O)[C@H](CCCNC(N)=O)NC(=O)[C@H](Cc2ccc(-c3ccccc3)cc2)NC(=O)[C@H](C(C)C)NC(=O)[C@H](Cc2c[nH]c3ccccc23)NC(=O)[C@H](CC(=O)O)NC(=O)[C@H](Cc2ccc(C(=O)O)cc2)NC(=O)[C@H](Cc2cccnc2)NC(=O)CSC[C@@H](C(=O)N[C@@H](C)C(N)=O)NC(=O)[C@H]([C@@H](C)O)NC(=O)[C@H](C(C)C)NC1=O` [Compound 1332] ({CH2CO}-[3Pal][Phe(4-COOH)]DWV[Bip][Cit][NMeA][dL][Dab]LVTCA-NH2; thioether N-14), the IC50 came to 0.03 µM.
Regarding `CC(C)C[C@@H]1NC(=O)[C@H](Cc2c[nH]c3ccccc23)NC(=O)[C@H](CC(=O)O)NC(=O)[C@H](Cc2ccncc2)NC(=O)[C@H](Cc2ccc(OCC(=O)O)cc2)NC(=O)CSC[C@@H](C(=O)N[C@@H](CCN)C(N)=O)NC(=O)[C@H](CCCN)NC(=O)[C@H](C(C)C)NC(=O)[C@H](CC2CCCCC2)NC(=O)[C@H](CCN)NC(=O)[C@@H](CC(C)C)NC(=O)[C@H](C)N(C)C(=O)[C@H](C(C)C)NC(=O)[C@H](Cc2ccc(-c3ccccc3)cc2)NC1=O` [Compound 1948] ({CH2CO}-Y(Carboxymethyl)[4Pal]DWL[Bip]V[NMeA][dL][Dab][Cha]V[Orn]C[Dab]-NH2; thioether N-14), the IC50 came to 0.02 µM.
